From patent US20240327406A1, “POTASSIUM CHANNEL MODULATORS” (Autifony Therapeutics Limited, priority 2021, published 2024)
Several values for one entry are separate records, joined by “and”; a condition that tells them apart may be missing. Identical values can stand only once. Like-named read-outs stand apart in the source and are kept apart here.

Biological target: T1, human Kv3.1 channels (hKv3.1) (Homo sapiens, UniProt P48547)
T1 sequence (P48547 1-501 limits assumed): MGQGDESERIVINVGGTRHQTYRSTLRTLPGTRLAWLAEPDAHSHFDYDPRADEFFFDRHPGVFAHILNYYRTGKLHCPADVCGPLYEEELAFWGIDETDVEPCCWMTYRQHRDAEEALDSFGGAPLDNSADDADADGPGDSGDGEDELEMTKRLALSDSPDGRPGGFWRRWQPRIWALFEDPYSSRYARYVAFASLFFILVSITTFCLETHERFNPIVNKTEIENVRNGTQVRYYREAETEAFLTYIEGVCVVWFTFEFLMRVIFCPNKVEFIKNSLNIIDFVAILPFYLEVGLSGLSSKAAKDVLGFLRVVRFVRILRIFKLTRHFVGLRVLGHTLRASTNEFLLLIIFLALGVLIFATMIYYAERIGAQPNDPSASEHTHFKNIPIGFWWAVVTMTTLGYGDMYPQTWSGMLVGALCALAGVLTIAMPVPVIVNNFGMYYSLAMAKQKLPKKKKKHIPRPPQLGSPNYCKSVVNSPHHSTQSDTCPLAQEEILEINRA
Assay: Measurement of Kv3 channel modulation: Kv3.1 assay (IonWorks Quattro whole-cell electrophysiology)
Assay type: cell-based
Details: for Kv3.1 max R %: normalised to maximum effect of reference compound (50 microM); for EC50: read-out: Kv3.1 pEC50 (converted)

[1] = Table 2, Example compounds, rounded to one decimal place, some compounds with two data sets (n given in cell)

Compound | Kv3.1 max R % (Table 2, Example compounds) | EC50 [1] [µM] | EC50 (Table 5, Example compounds) [µM]
Cc1ccc(Oc2ccc(-n3c(=O)[nH]c4cccnc43)cn2)cc1OC(F)(F)F [Example 4, 3-[6-[4-methyl-3-(trifluoromethoxy)phenoxy]-3-pyridyl]-1H-imidazo[4,5-b]pyridin-2-one] | 111% | 1.26 | 1.26
O=c1[nH]c2cccnc2n1-c1cnc(Oc2cccc(OC(F)(F)F)c2)nc1 [Example 17, 3-[2-[3-(trifluoromethoxy)phenoxy]pyrimidin-5-yl]-1H-imidazo[4,5-b]pyridin-2-one] | 103% and 125% | 1.26 | 1
Cc1ccc(Oc2ncc(-n3c(=O)[nH]c4cccnc43)cn2)cc1OC(F)(F)F [Example 32, 3-[2-[4-methyl-3-(trifluoromethoxy)phenoxy]pyrimidin-5-yl]-1H-imidazo[4,5-b]pyridin-2-one] | 174% | 1.58 | 1.58
